Data from patent publication US10421749B2, “Pyrone derivatives for use as antiviral agents” (priority 2015, dated 2019).
“Also recorded” adds a separate entry of the source.

Tests used:
LC5-RIC cells = assay: MTT cell viability assay of LC5-RIC test cultures; assay type: cell-based; settings: concentration range tested 0 to 120 μM; FIG. 1C
From the text: Effects of compounds on cell viability wasy measured by MTT assay, Cell Titre Blue Assay and Cell Tox Green Assay. The MTT assay and the Cell Titre Blue Assay evaluate metabolic activity of cells, The Cell Tox Green assay measures cell death (i.e. loss of cell membrane integrity). The MTT assay measures the reduction of the yellow MTT to purple formazan by mitochondrial enzymes (Mosmann, T., J. Immunol. Methods 65 (1983), 55-63) Immediately following measurement of reporter expression, cultures were incubated with 100 μl of MTT solution (0.5 mg of MTT; Sigma, Taufkirchen, Germany) in 100 μl of culture medium for 2 h under standard culture conditions. MTT solution was carefully removed, and cells were lysed by addition of 100 μl of lysis solution (10% [wt/vol] SDS and 0.6% [vol/vol] acetic acid in dimethyl sulfoxide [DMSO]). The released MTT formazan crystals were dissolved by gentle agitation, and MTT formazan concentrations were determined by an ELISA plate reader (SmartSpec Plus; Bio-Rad, Muenchen, Germany) or Tecan Infinite M200 at a test wavelength of 570 nm and a reference wavelength of 630 nm. Values for treated HIV-infected cultures were related to those of untreated, HIV-infected cultures in the same plate. […]

HIV = assay: Time-of-addition (TOA) assay in LC5-RIC cells; assay type: cell-based, HIV-1; settings: FIG. 2
Protocol: TOA assays were performed in 96-well plates using a standard assay setup with some modifications. HIV-1IIIB virus preparations were added to LC5-RIC cultures at time point 0. Anti-HIV compounds were added to the cultures at different time points after addition of virus preparations. Inhibitor concentrations were ≥2× EC50 in each well. At least 15 different time points were evaluated for each compound in at least three wells per time point. Cultures were incubated with virus for 48 h and subsequently analyzed for cellular reporter gene expression and/or infectious virus titers in culture supernatants.
To further characterize the inhibitory effects of Compound 1, HIV preparations were added to LC5-RIC cells at the time point 0. Compound 1 was added to the cultures at different time points after virus addition (i.e., p.i.). Plates were incubated for a total period of 48 h after virus addition, and cultures were assayed for HIV reporter expression (step 1) or for amounts of infectious virus in culture supernatants (step 2). Fluorescent signal intensities of treated cultures were related to those of cultures infected without inhibitors (set at 100% infection).

[1] = system: HIV-1 expression in HNSCLatGFP1.1 cells; assay: Induced expression of latent HIV-1-gfp reporter virus in HNSCLatGFP1.1 cells (GFP, FACS); assay type: cell-based, human; settings: induction with TNF; 0.5, 5, 50 nM compound; FIG. 3A
Protocol: A) Induction of expression of HIV-1 in HNSCLatGFP1.1 cells using TNF: 1: untreated (negative control); 2: TNF (positive control); 3: 0.5 nM Compound 1; 4: 5 nM Compound 1; 5: 50 nM Compound 1; 6: 0.5 nM Compound 1+TNF; 7: 5 nM Compound 1+TNF; 8: 50 nM Compound 1+TNF. B) Induction of expression of HIV-1 in HNSCLatGFP1.1 cells using TNF+SAHA: 1: mock; 2: TNF+SAHA; 3: 50 nM Compound 1; 4: TNF+SAHA+50 nM Compound 1. C) Induction of expression of HIV-1 in HNSCLatGFP1.1 cells using SAHA: 1: untreated (negative control); 2: SAHA (positive control); 3: 0.5 nM Compound 1; 4: 5 nM Compound 1; 5: 50 nM Compound 1; 6: 0.5 nM Compound 1+SAHA; 7: 5 nM Compound 1+SAHA; 8: 50 nM Compound 1+SAHA.
To further characterize the inhibitory effects of Compound 1, a further cell line (HNSCLatGFP1.1) was established into the genome of which the genome of a HIV-1-gfp reporter virus has been stably integrated.
Reference cultures were either untreated (minimum signal; lane 1 of FIG. 3A) or exposed to TNF (maximum signal; lane 2 of FIG. 3A). HNSCLatGFP1.1 cells were exposed to different concentrations of Compound 1 either alone (lanes 3 to 5 of FIG. 3A) or together with TNF (lanes 6 to 8 of FIG. 3A).

HBV = HBV replication in HepG2.2.15 cells (HBeAg, released viral particles, intracellular HBV DNA); assay type: cell-based; settings: three days treatment, 1 μM to 1 nM
Protocol: Antiviral effect of Compound 1 on HBV replication. A) After a three days treatment of HepG2.2.15 cells with Compound 1 in a concentration range from 1 μM to 1 nM, the cell viability was unchanged compared to untreated control cells.
(§1) The human hepatoma cell line HepG2.2.15, stably expressing HBV particles, was seeded in a 48 well format at a density of 5×10^4 the day before starting the treatment. Next day the cells were treated with 1 μM, 100 nM, 10 nM and 1 nM of Compound 1 with 3 independent biological replicates each. The cells were cultured in differentiation medium containing 1.8% DMSO, to slow down cell growth and enhance viral replication. Three days after treatment, cell viability (FIG. 4A) was determined by cell titer blue assay, cell supernatants were analyzed for HBeAg and newly released viral particles (FIGS. 4B and C) and finally cells were harvested to analyze for intracellular HBV DNA (FIG. 4D).

HepG2.2.15 cells = assay: Cell viability of HepG2.2.15 cells by cell titer blue assay; assay type: cell-based, human; settings: three days treatment, 1 μM to 1 nM, compared to untreated control cells; FIG. 4A
Protocol: as §1

HIV-1 [2] = assay: microbe, parasite or virus in culture; settings: Human immunodeficiency virus 1, 48 h, read-out: EC50 with respect to HIV replication
Protocol: (§2) LC5-RIC cells were seeded into 96-well plates (μCLEAR-Plate Black; Greiner Bio-One, Kremsmuenster, Germany), using only the 60 inner wells to avoid adverse effects caused by variations in the culture conditions in the outer wells. Cells were seeded at a density of 10^4 per well at 24 h prior to infection. Compounds were tested either at single concentrations or in serial dilutions, with each concentration assayed in triplicate. Compound solution (100 μl) followed by 20 μl of HIV inoculum (10^8 RNA copies/ml inoculum for KE37.1-derived HIV-1IIIB or 28.8 ng of p24 for HIV-1LAI derived from HEK 293T cells) was added to each well. To assay maximum infection (i.e., 100%), HIV inoculum was added to LC5-RIC cells incubated with compound-free medium. Controls for background expression consisted of LC5-RIC cells cultured in conditioned medium from KE37.1 (i.e., uninfected) cells. Plates were incubated for 48 h after virus addition, after which cultures were assayed for cellular reporter expression and for titers of infectious virus in supernatant fluids. Reporter expression was determined by measuring the total fluorescent signal intensity of each culture with a fluorescence microplate reader (Fluoroskan Ascent; ThermoFisher, Schwerte, Germany) at an excitation filter wavelength of 544 nm and an emission filter wavelength of 590 nm or with a Tecan infinite M200 (Tecan, Crailsheim, Germany) at the monochromator wavelengths 552 nm for excitation and 596 for emission. To quantify infectious virus titers, supernatant fluids (30 μl of HIV-1IIIB or 20 μl for HIV-1LAI) from cultures in the first plate were transferred to a second plate with uninfected LC5-RIC cells in exact replicate, and total fluorescent signal intensities of cultures in the second plate were measured 72 h after transfer.
(§3) Curve fits and EC50 calculations were done with Prism, version 4 (GraphPad Software, La Jolla, Calif.), using the equation for sigmoidal dose response with variable slope with the following set constraint parameters: fixed top of 100 and fixed bottom of 0. As internal acceptance criteria, R^2 values had to be ≥0.9.
(§4) To evaluate the inhibitory effects of the pyrone derivatives described herein, the EASY-HIT assay was used as disclosed in Kremp et al., supra. Briefly, a pyrone compound (or another test compound) was added to LC5-RIC cultures (or other uninfected cells, such as PBMCs) in microtiter plates, HIV preparations were added within 30 min of beginning treatment, and test cultures were incubated for 48 h after virus addition. Reference cultures were either exposed to the virus without test compound (maximum signal) or not exposed to the virus (minimum signal). Effects of test compounds on HIV infection of LC5-RIC cultures were determined in two steps. The first step quantified reporter expression by assaying fluorescent signal intensities of cells in test cultures. The second step quantified the infectious virus produced in test cultures by transferring aliquots of supernatants of test cultures to uninfected LC5-RIC cells (or other uninfected cells, such as PBMCs), followed by measurement of fluorescent signal intensities at 72 h after transfer. Cells evaluated for reporter expression were subjected to an MTT assay to detect deleterious effects of test compounds on cell viability under test conditions.
(§5) Briefly, the test compound) was added to LC5-RIC cultures in microtiter plates. HIV-1 virus preparations were added within 30 min of beginning treatment with the text compound and test cultures were incubated for 48 h after virus addition. Reference cultures were either exposed to the virus without test compound (maximum signal) or not exposed to the virus (minimum signal).

HIV-1 [3] = settings: LC5-RIC cells; for inhibition of HIV-1 replication: 48 h, steps 1 and 2, FIG. 5; for inhibition of the late phase of HIV-1 replication: step 2 (supernatant transfer, 72 h), FIG. 6, FIG. 7
Protocol: as §2, §3, §4, §5

COc1oc([C@H]2C/C(=C/C(C)=C/c3ccc([N+](=O)[O-])cc3)CO2)c(C)c(=O)c1C [Compound 1]
toxic effect (MTT cell viability) (LC5-RIC cells): did not exhibit any toxic effect
time between infection and addition of compound at which HIV replication was still blocked (HIV; LC5-RIC cells, 48 h total incubation): 30 h
stage of HIV replication inhibited (time-of-addition) (HIV; compound added at different time points after virus addition, 48 h total): inhibited the HIV replication at a very early stage
inhibition of virus production in HNSCLatGFP1.1 cells [1]: able to inhibit virus production in HNSCLatGFP1.1 cells in a dose dependent manner
IC50 (HBV; Hepatitis B virus, 72 h, n=3, read-out: IC50 of viral replication markers (HBeAg, released viral particles, intracellular HBV DNA)): 2 to 20 nM
viral replication markers (HBeAg, newly released viral particles, intracellular HBV DNA) (HBV; FIG. 4B-D): strongly reduced in a dose dependent fashion
cell viability of HepG2.2.15 cells (HepG2.2.15 cells): unchanged; also recorded: without affecting cell viability
EC50 (HIV-1 [2]): 0.6 nM

COc1oc([C@H]2C/C(=C/C(C)=C/c3ccc(Cl)cc3)CO2)c(C)c(=O)c1C [Compound 4]
inhibition of HIV-1 replication (HIV-1 [3]): inhibit HIV-1 replication

COc1oc([C@H]2C/C(=C/C(C)=C/c3cccc(Cl)c3)CO2)c(C)c(=O)c1C [Compound 19]
inhibition of HIV-1 replication (HIV-1 [3]): inhibit HIV-1 replication

COc1oc([C@H]2C/C(=C/C(C)=C/c3ccc(F)cc3F)CO2)c(C)c(=O)c1C [Compound 21]
inhibition of the late phase of HIV-1 replication (HIV-1 [3]): highest activities

COc1oc([C@H]2C/C(=C/C(C)=C/c3ccc(C(F)(F)F)cc3)CO2)c(C)c(=O)c1C [Compound 22]
inhibition of the late phase of HIV-1 replication (HIV-1 [3]): highest activities

COc1ccc(/C=C(C)/C=C2\CO[C@@H](c3oc(OC)c(C)c(=O)c3C)C2)cc1OC [Compound 23]
inhibition of the late phase of HIV-1 replication (HIV-1 [3]): lowest activity
